According to EPA's ToxRefDB 2:

Experiments:
rat [1] = details: Peri- and post-natal toxicity study (Segment III), sprague dawley, Oral, Gavage/Intubation, dose end: 4 PND
rabbit [2] = details: Prenatal developmental toxicity study, new zealand white, Oral, Gavage/Intubation, dose end: 18 GD, group: maternal
rat [3] = details: Prenatal developmental toxicity study; sprague dawley; Oral; Gavage/Intubation; dose end: 15 GD; group: maternal; reproductive / reproductive performance / estrous cycle / corpora lutea + reproductive / reproductive performance / implantations / …
dog [4] = details: Chronic toxicity; beagle; Oral; Capsule; dose end: 6 month; group: systemic; systemic / clinical chemistry / triglycerides / triglycerides + systemic / in life observation / body weight / body weight gain + systemic…
rat [5] = details: Chronic toxicity, sprague dawley, Oral, Gavage/Intubation, dose end: 6 month, group: systemic
rat [6] = details: Fertility (Segment I), sprague dawley, Oral, Gavage/Intubation, dose end: 7 GD, group: parental
mouse [7] = details: Carcinogenicity; cd1; Oral; Gavage/Intubation; dose end: 2 year; group: systemic; systemic / in life observation / body weight / body weight gain + systemic / in life observation / clinical signs / [other] + systemic / in …
rabbit [8] = details: Prenatal developmental toxicity study, new zealand white, Oral, Gavage/Intubation, dose end: 18 GD, group: maternal; remark: listed apart in the source
rat [9] = details: Peri- and post-natal toxicity study (Segment III), sprague dawley, Oral, Gavage/Intubation, dose end: 21 PND
dog [10] = details: Chronic toxicity, beagle, Oral, Capsule, dose end: 52 week, group: systemic
rat [11] = details: Carcinogenicity; sprague dawley; Oral; Gavage/Intubation; dose end: 2 year; group: systemic; systemic / in life observation / body weight / body weight gain + systemic / in life observation / clinical signs / [other] + systemic / in …
rat [12] = details: Sub-acute repeat dose toxicity, sprague dawley, Oral, Gavage/Intubation, dose end: 4 week, group: systemic
rat [13] = details: Prenatal developmental toxicity study; sprague dawley; Oral; Gavage/Intubation; dose end: 15 GD; group: maternal; systemic / in life observation / clinical signs / salivation
mouse [14] = details: Subchronic oral toxicity in rodents, cd1, Gavage/Intubation, dose end: 94 days, group: systemic
rat [15] = details: Subchronic oral toxicity in rodents, sprague dawley, Injection, Intraperitoneal, dose end: 45 day, group: systemic
mouse [16] = details: Carcinogenicity, b6c3f1, Injection, Intraperitoneal, dose end: 52 week, group: systemic
rat [17] = details: Carcinogenicity, sprague dawley, Injection, Intraperitoneal, dose end: 52 week, group: systemic
rat [18] = details: Subchronic oral toxicity in rodents, sprague dawley, Feed, dose end: 13 week, group: systemic, systemic / clinical chemistry / cholesterol / cholesterol + systemic / organ weight / liver / relative to body weight + systemic / pathology…
rat [19] = details: Multigenerational reproductive toxicity study, sprague dawley, Oral, Feed, dose end: 2 generation
mouse [20] = details: Carcinogenicity, b6c3f1, Oral, Feed, dose end: 24 month, group: systemic
dog [21] = details: Chronic toxicity; beagle; Oral; Feed; dose end: 52 week; group: systemic; systemic / clinical chemistry / alkaline phosphatase (alp/alk) / alkaline phosphatase (alp/alk) + systemic / organ weight / liver / absolute…
rat [22] = details: Combined chronic toxicity/carcinogenicity; sprague dawley; Oral; Feed; dose end: 24 month; group: systemic; systemic / organ weight / liver / relative to body weight + systemic / pathology microscopic / liver / hypertrophy + systemic / pathology …
[23] = group: maternal, reproductive / offspring survival early / birth index / live birth index
[24] = group: parental, systemic / in life observation / clinical signs / [other] + systemic / in life observation / clinical signs / labored respiration + systemic…
[25] = group: parental, systemic / in life observation / clinical signs / [other] + systemic / in life observation / clinical signs / salivation + systemic / in …
[26] = systemic / in life observation / body weight / body weight gain + systemic / in life observation / food consumption / food consumption
[27] = systemic / in life observation / food consumption / food consumption
[28] = systemic / clinical chemistry / chloride / chloride + systemic / clinical chemistry / triglycerides / triglycerides + systemic / clinical …
[29] = systemic / clinical chemistry / triglycerides / triglycerides + systemic / in life observation / body weight / body weight gain + systemic…
[30] = systemic / in life observation / clinical signs / abnormal respiratory sounds + systemic / in life observation / clinical signs / urogenital…
[31] = systemic / in life observation / clinical signs / abnormal respiratory sounds + systemic / in life observation / food consumption / food …
[32] = reproductive / reproductive performance / aborted / aborted + reproductive / reproductive performance / postimplantation loss / …
[33] = group: maternal, reproductive / reproductive performance / reproductive performance other / NOS
[34] = group: maternal, reproductive / reproductive performance / reproductive performance other / NOS + reproductive / offspring survival early / litter viability …
[35] = group: offspring, systemic / in life observation / body weight / offspring (pup) weight
[36] = group: parental, systemic / in life observation / clinical signs / abnormal respiratory sounds + systemic / in life observation / clinical signs / emaciation…
[37] = group: parental, systemic / in life observation / mortality / mortality
[38] = systemic / clinical chemistry / triglycerides / triglycerides + systemic / in life observation / body weight / body weight gain
[39] = systemic / clinical chemistry / potassium / potassium + systemic / clinical chemistry / sodium / sodium + systemic / in life observation / …
[40] = systemic / in life observation / clinical signs / motor activity
[41] = systemic / clinical chemistry / calcium / calcium + systemic / clinical chemistry / cholesterol / cholesterol + systemic / clinical …
[42] = systemic / clinical chemistry / potassium / potassium + systemic / clinical chemistry / bilirubin / total bilirubin + systemic / clinical …
[43] = systemic / in life observation / clinical signs / distended abdomens + systemic / in life observation / mortality / mortality + systemic / …
[44] = systemic / in life observation / mortality / mortality
[45] = systemic / pathology microscopic / peritoneum / sarcoma + systemic / in life observation / body weight / body weight + systemic / in life …
[46] = systemic / in life observation / mortality / mortality + systemic / pathology microscopic / peritoneum / sarcoma
[47] = systemic / in life observation / mortality / mortality + systemic / pathology microscopic / peritoneum / sarcoma + systemic / in life …
[48] = group: parental, systemic / in life observation / body weight / body weight + systemic / in life observation / food consumption / food consumption + systemic…
[49] = systemic / pathology gross / liver / enlarged + systemic / pathology gross / liver / mass + systemic / pathology gross / liver / nodule(s…

For `CCOC(=O)COc1ccc2c(c1)CC(NCC(O)c1cccc(Cl)c1)CC2.Cl` (centres undefined), the LEL (rat [1]; [23]) was 200 mg/kg/day, the LOAEL (rat [1]; [23]) was > 750 mg/kg/day and the NEL (rat [1]; [23]) was 50 mg/kg/day. For the same compound, the NOAEL (rat [1]; [23]) was ≥ 750 mg/kg/day, the LOAEL (rat [1]; [24]) was > 750 mg/kg/day and the NOAEL (rat [1]; [24]) was ≥ 750 mg/kg/day. For the same compound, the LEL (rat [1]; [25]) was 50 mg/kg/day, the NEL (rat [1]; [25]) was < 50 mg/kg/day and the LOAEL (rabbit [2]; [26]) was > 500 mg/kg/day. The NOAEL (rabbit [2]; [26]) was ≥ 500 mg/kg/day, the LEL (rabbit [2]; [27]) was 50 mg/kg/day and the NEL (rabbit [2]; [27]) was < 50 mg/kg/day. The LEL (rat [3]) was 200 mg/kg/day, the LOAEL (rat [3]) was > 750 mg/kg/day and the NEL (rat [3]) was 50 mg/kg/day. For the same compound, the NOAEL (rat [3]) was ≥ 750 mg/kg/day, the LEL (dog [4]) was 10 mg/kg/day and the LOAEL (dog [4]) was > 250 mg/kg/day. For the same compound, the NEL (dog [4]) was < 10 mg/kg/day, the NOAEL (dog [4]) was ≥ 250 mg/kg/day and the LOAEL (rat [5]; [28]) was > 500 mg/kg/day. For the same compound, the NOAEL (rat [5]; [28]) was ≥ 500 mg/kg/day, the LEL (rat [5]; [29]) was 20 mg/kg/day and the NEL (rat [5]; [29]) was < 20 mg/kg/day. For the same compound, the LOAEL (rat [6]; [30]) was > 750 mg/kg/day, the NOAEL (rat [6]; [30]) was ≥ 750 mg/kg/day and the LEL (rat [6]; [31]) was 50 mg/kg/day. For the same compound, the NEL (rat [6]; [31]) was < 50 mg/kg/day, the LEL (mouse [7]) was 25 mg/kg/day and the LOAEL (mouse [7]) was > 100 mg/kg/day. For the same compound, the NEL (mouse [7]) was < 25 mg/kg/day, the NOAEL (mouse [7]) was ≥ 100 mg/kg/day and the LOAEL (rabbit [8]; [32]) was > 500 mg/kg/day. For the same compound, the NEL (rabbit [8]; [32]) was 50 mg/kg/day, the NOAEL (rabbit [8]; [32]) was ≥ 500 mg/kg/day and the LEL (rabbit [8]; reproductive / reproductive performance / postimplantation loss / postimplantation loss) was 160 mg/kg/day. For the same compound, the LEL (rat [9]; [33]) was 50 mg/kg/day, the NEL (rat [9]; [33]) was < 50 mg/kg/day and the LOAEL (rat [9]; [34]) was > 750 mg/kg/day. The NOAEL (rat [9]; [34]) was ≥ 750 mg/kg/day, the LEL (rat [9]; [35]) was 50 mg/kg/day and the LOAEL (rat [9]; [35]) was 200 mg/kg/day. The NEL (rat [9]; [35]) was < 50 mg/kg/day, the NOAEL (rat [9]; [35]) was 50 mg/kg/day and the LOAEL (rat [9]; [36]) was > 750 mg/kg/day. The NOAEL (rat [9]; [36]) was ≥ 750 mg/kg/day, the LEL (rat [9]; [37]) was 50 mg/kg/day and the NEL (rat [9]; [37]) was < 50 mg/kg/day. For the same compound, the LEL (dog [10]; [38]) was 10 mg/kg/day, the NEL (dog [10]; [38]) was < 10 mg/kg/day and the LOAEL (dog [10]; [29]) was > 250 mg/kg/day. The NOAEL (dog [10]; [29]) was ≥ 250 mg/kg/day, the LEL (rat [11]) was 50 mg/kg/day and the LOAEL (rat [11]) was > 500 mg/kg/day. For the same compound, the NEL (rat [11]) was < 50 mg/kg/day, the NOAEL (rat [11]) was ≥ 500 mg/kg/day and the LOAEL (rat [12]; [39]) was > 500 mg/kg/day. The NOAEL (rat [12]; [39]) was ≥ 500 mg/kg/day, the LEL (rat [12]; [40]) was 20 mg/kg/day and the NEL (rat [12]; [40]) was < 20 mg/kg/day. For the same compound, the LEL (rat [13]) was 200 mg/kg/day, the LOAEL (rat [13]) was > 750 mg/kg/day and the NEL (rat [13]) was 50 mg/kg/day. For the same compound, the NOAEL (rat [13]) was ≥ 750 mg/kg/day, the LOAEL (mouse [14]; [41]) was > 500 mg/kg/day and the NOAEL (mouse [14]; [41]) was ≥ 500 mg/kg/day. The LEL (mouse [14]; [42]) was 100 mg/kg/day and the NEL (mouse [14]; [42]) was < 100 mg/kg/day.

`CC(COc1ccccc1)N(CCCl)Cc1ccccc1.Cl` (centres undefined) [Phenoxybenzamine hydrochloride] was tested, and the LEL (rat [15]; systemic / in life observation / clinical signs / distended abdomens) was 15 mg/kg/day, the LOAEL (rat [15]; [43]) was > 30 mg/kg/day and the NEL (rat [15]; [43]) was 7.5 mg/kg/day. The NOAEL (rat [15]; [43]) was ≥ 30 mg/kg/day, the LEL (mouse [16]; [44]) was 12.5 mg/kg/day and the NEL (mouse [16]; [44]) was < 12.5 mg/kg/day. For the same compound, the LOAEL (mouse [16]; [45]) was > 25 mg/kg/day, the NOAEL (mouse [16]; [45]) was ≥ 25 mg/kg/day and the LEL (rat [17]; [46]) was 5 mg/kg/day. The NEL (rat [17]; [46]) was < 5 mg/kg/day, the LOAEL (rat [17]; [47]) was > 10 mg/kg/day and the NOAEL (rat [17]; [47]) was ≥ 10 mg/kg/day.

With `C#CC(C)(C)NC(=O)c1cc(Cl)cc(Cl)c1` [Propyzamide] the LEL (rat [18]) was 60 mg/kg/day, the LOAEL (rat [18]) was 60 mg/kg/day and the NEL (rat [18]) was 12.3 mg/kg/day. It also gave an NOAEL (rat [18]) of 12.3 mg/kg/day, an LEL (rat [19]; [35]) of 114 mg/kg/day and an LOAEL (rat [19]; [35]) of 114 mg/kg/day. For the same compound, the NEL (rat [19]; [35]) was 15.4 mg/kg/day, the NOAEL (rat [19]; [35]) was 15.4 mg/kg/day and the LEL (rat [19]; [48]) was 114 mg/kg/day. For the same compound, the LOAEL (rat [19]; [48]) was 114 mg/kg/day, the NEL (rat [19]; [48]) was 15.4 mg/kg/day and the NOAEL (rat [19]; [48]) was 15.4 mg/kg/day. For the same compound, the LOAEL (mouse [20]; systemic / pathology gross / liver / enlarged + systemic / pathology gross / liver / mass + systemic / pathology gross / liver / nodule(s)) was 75 mg/kg/day, the LEL (mouse [20]; [49]) was 75 mg/kg/day and the NEL (mouse [20]; [49]) was 15 mg/kg/day. For the same compound, the NOAEL (mouse [20]; [49]) was 15 mg/kg/day, the LEL (dog [21]) was 33.1 mg/kg/day and the LOAEL (dog [21]) was 33.1 mg/kg/day. It also gave an NEL (dog [21]) of 11.9 mg/kg/day, an NOAEL (dog [21]) of 11.9 mg/kg/day and an LEL (rat [22]) of 48.8 mg/kg/day. The LOAEL (rat [22]) was 48.8 mg/kg/day, the NEL (rat [22]) was 10.1 mg/kg/day and the NOAEL (rat [22]) was 10.1 mg/kg/day.
